Test system: 624824-186-R-J3-PDC multicell spheroids, viability
Experiment: Anticancer human tumor 624824-186-R-J3-PDC patient-derived colon adenocarcinoma cell line growth inhibition [PI3K]
Details: for IC50: curve of first compound; for viability, T/C: stronger effect = lower value
In short: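 Viability of mixed-cell spheroids was determined after exposure to pairwise combinations, one partner being inavolisib, alpelisib, duvelisib or copanlisib. Highest tested concentration matched clinical Cmax where known and 10 microM where not, descending in half-log steps.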

[1] = second compound 0.0316 µM, first compound 0.0316 µM
[2] = second compound 0.0316 µM, first compound 0.1 µM
[3] = second compound 0.0316 µM, first compound 0.316 µM
[4] = second compound 0.0316 µM, first compound 1 µM
[5] = second compound 0.1 µM, first compound 0.0316 µM
[6] = second compound 0.1 µM, first compound 0.1 µM
[7] = second compound 0.1 µM, first compound 0.316 µM
[8] = second compound 0.1 µM, first compound 1 µM
[9] = second compound 0.316 µM, first compound 0.0316 µM
[10] = second compound 0.316 µM, first compound 0.1 µM
[11] = second compound 0.316 µM, first compound 0.316 µM
[12] = second compound 0.316 µM, first compound 1 µM
[13] = second compound 1 µM, first compound 0.0316 µM
[14] = second compound 1 µM, first compound 0.1 µM
[15] = second compound 1 µM, first compound 0.316 µM
[16] = second compound 1 µM, first compound 1 µM
[17] = second compound 3.16 µM, first compound 0.0316 µM
[18] = second compound 3.16 µM, first compound 0.1 µM
[19] = second compound 3.16 µM, first compound 0.316 µM
[20] = second compound 3.16 µM, first compound 1 µM
[21] = second compound 10 µM, first compound 0.0316 µM
[22] = second compound 10 µM, first compound 0.1 µM
[23] = second compound 10 µM, first compound 0.316 µM
[24] = second compound 10 µM, first compound 1 µM
[25] = second compound 0.0316 µM, first compound 3.16 µM
[26] = second compound 0.0316 µM, first compound 10 µM
[27] = second compound 0.1 µM, first compound 3.16 µM
[28] = second compound 0.1 µM, first compound 10 µM
[29] = second compound 0.316 µM, first compound 3.16 µM
[30] = second compound 0.316 µM, first compound 10 µM
[31] = second compound 1 µM, first compound 3.16 µM
[32] = second compound 1 µM, first compound 10 µM
[33] = second compound 3.16 µM, first compound 3.16 µM
[34] = second compound 3.16 µM, first compound 10 µM
[35] = second compound 10 µM, first compound 3.16 µM
[36] = second compound 10 µM, first compound 10 µM
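Further: spheroids exposed to agents for seven days before luminescence read.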
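Wherever viability, T/C is given: luminescent signal used as a stand-in for spheroid viability; percent viability relative to DMSO vehicle control wells taken as 100%.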

SMILES: CCN1CCN(Cc2ccc(Nc3ncc(F)c(-c4cc(F)c5nc(C)n(C(C)C)c5c4)n3)nc2)CC1 + CC(Nc1ncnc2nc[nH]c12)c1cc2cccc(Cl)c2c(=O)n1-c1ccccc1
- IC50 (second compound 0.0316 µM): > 1 µM
- IC50 (second compound 0.1 µM): > 1 µM
- IC50 (second compound 0.316 µM): > 1 µM
- IC50 (second compound 1 µM): > 1 µM
- IC50 (second compound 3.16 µM): > 1 µM
- IC50 (second compound 10 µM): > 1 µM
- viability, T/C (second compound 0.0316 µM, first compound 0.00316 µM): 101%
- viability, T/C (second compound 0.0316 µM, first compound 0.01 µM): 94%
- viability, T/C [1]: 101%
- viability, T/C [2]: 110%
- viability, T/C [3]: 99%
- viability, T/C [4]: 109%
- viability, T/C (second compound 0.1 µM, first compound 0.00316 µM): 103%
- viability, T/C (second compound 0.1 µM, first compound 0.01 µM): 108%
- viability, T/C [5]: 97.2%
- viability, T/C [6]: 106%
- viability, T/C [7]: 111%
- viability, T/C [8]: 97.6%
- viability, T/C (second compound 0.316 µM, first compound 0.00316 µM): 105%
- viability, T/C (second compound 0.316 µM, first compound 0.01 µM): 110%
- viability, T/C [9]: 96.4%
- viability, T/C [10]: 111%
- viability, T/C [11]: 99.8%
- viability, T/C [12]: 99.7%
- viability, T/C (second compound 1 µM, first compound 0.00316 µM): 93.1%
- viability, T/C (second compound 1 µM, first compound 0.01 µM): 103%
- viability, T/C [13]: 104%
- viability, T/C [14]: 94.3%
- viability, T/C [15]: 92.2%
- viability, T/C [16]: 101%
- viability, T/C (second compound 3.16 µM, first compound 0.00316 µM): 106%
- viability, T/C (second compound 3.16 µM, first compound 0.01 µM): 100%
- viability, T/C [17]: 102%
- viability, T/C [18]: 90.8%
- viability, T/C [19]: 88.1%
- viability, T/C [20]: 81.8%
- viability, T/C (second compound 10 µM, first compound 0.00316 µM): 96.6%
- viability, T/C (second compound 10 µM, first compound 0.01 µM): 96.7%
- viability, T/C [21]: 87%
- viability, T/C [22]: 78.1%
- viability, T/C [23]: 65.3%
- viability, T/C [24]: 67%

SMILES: Cn1ncc(Cl)c1-c1cc(C(=O)NC(CN)Cc2cccc(F)c2)sc1Cl (stereo unspecified) + CC(Nc1ncnc2nc[nH]c12)c1cc2cccc(Cl)c2c(=O)n1-c1ccccc1
- IC50 (second compound 0.0316 µM): > 10 µM
- IC50 (second compound 0.1 µM): 8.15 µM
- IC50 (second compound 0.316 µM): 5.63 µM
- IC50 (second compound 1 µM): 5.17 µM
- IC50 (second compound 3.16 µM): 4.18 µM
- IC50 (second compound 10 µM): 2.26 µM
- viability, T/C [1]: 95.7%
- viability, T/C [2]: 109%
- viability, T/C [3]: 103%
- viability, T/C [4]: 69.4%
- viability, T/C [25]: 62.4%
- viability, T/C [26]: 47.8%
- viability, T/C [5]: 115%
- viability, T/C [6]: 101%
- viability, T/C [7]: 96.1%
- viability, T/C [8]: 83.5%
- viability, T/C [27]: 64.5%
- viability, T/C [28]: 46.5%
- viability, T/C [9]: 103%
- viability, T/C [10]: 101%
- viability, T/C [11]: 90.7%
- viability, T/C [12]: 75.4%
- viability, T/C [29]: 59.9%
- viability, T/C [30]: 41%
- viability, T/C [13]: 107%
- viability, T/C [14]: 102%
- viability, T/C [15]: 91.9%
- viability, T/C [16]: 78.6%
- viability, T/C [31]: 61.5%
- viability, T/C [32]: 35.2%
- viability, T/C [17]: 96.8%
- viability, T/C [18]: 94%
- viability, T/C [19]: 86.3%
- viability, T/C [20]: 64.4%
- viability, T/C [33]: 57.6%
- viability, T/C [34]: 37.5%
- viability, T/C [21]: 94.3%
- viability, T/C [22]: 89.6%
- viability, T/C [23]: 73.5%
- viability, T/C [24]: 60.5%
- viability, T/C [35]: 45.7%
- viability, T/C [36]: 38.5%

SMILES: Cn1nccc1Nc1nccc(-c2ccn(C(CO)c3ccc(Cl)c(F)c3)c(=O)c2)n1 (stereo unspecified) + CC(Nc1ncnc2nc[nH]c12)c1cc2cccc(Cl)c2c(=O)n1-c1ccccc1
- IC50 (second compound 0.0316 µM): > 10 µM
- IC50 (second compound 0.1 µM): > 10 µM
- IC50 (second compound 0.316 µM): > 10 µM
- IC50 (second compound 1 µM): 9.34 µM
- IC50 (second compound 3.16 µM): 2.84 µM
- IC50 (second compound 10 µM): 0.633 µM
- viability, T/C [1]: 103%
- viability, T/C [2]: 93.9%
- viability, T/C [3]: 95.1%
- viability, T/C [4]: 76.9%
- viability, T/C [25]: 61.2%
- viability, T/C [26]: 57.4%
- viability, T/C [5]: 103%
- viability, T/C [6]: 85.4%
- viability, T/C [7]: 94.5%
- viability, T/C [8]: 74%
- viability, T/C [27]: 61.2%
- viability, T/C [28]: 57.3%
- viability, T/C [9]: 89.7%
- viability, T/C [10]: 88%
- viability, T/C [11]: 87%
- viability, T/C [12]: 72.7%
- viability, T/C [29]: 62.6%
- viability, T/C [30]: 51.8%
- viability, T/C [13]: 98.5%
- viability, T/C [14]: 88.2%
- viability, T/C [15]: 91.2%
- viability, T/C [16]: 77.7%
- viability, T/C [31]: 61.8%
- viability, T/C [32]: 49.4%
- viability, T/C [17]: 103%
- viability, T/C [18]: 88.1%
- viability, T/C [19]: 74.8%
- viability, T/C [20]: 63%
- viability, T/C [33]: 47.4%
- viability, T/C [34]: 38.5%
- viability, T/C [21]: 89.6%
- viability, T/C [22]: 81.7%
- viability, T/C [23]: 59.4%
- viability, T/C [24]: 43.5%
- viability, T/C [35]: 35.5%
- viability, T/C [36]: 30.2%
